US8629174B2, “Unifying mechanism and methods to prevent cancer and neurodegenerative diseases” (Prevention L.L.C., priority 2002, dated 2014)

Assays:
[1] = test system: DNA; experiment: Reaction of E2-3,4-Q or enzymatically-activated 4-OHE2 with DNA in vitro; format: biochemical; conditions: enzymatically activated (peroxidases, tyrosinase, microsomes), all cases
Description: To determine whether DNA adducts are formed in biological systems, E2-3,4-Q or enzymatically-activated 4-hydroxyestradiol (4-OHE2) was reacted with DNA for 2 h at 37° C. The stable adducts were quantified by the ^32P-postlabeling method, and the depurinating adducts were analyzed by high pressure liquid chromatography (HPLC) interfaced with an electrochemical detector. When E2-3,4-Q reacted with DNA, almost the same amount of the depurinating adducts 4-OHE2-1-N3Ade and 4-OHE2-1-N7Gua were obtained, and the amount of stable adducts was 0.02% of the depurinating ones. Activation of 4-OHE2 by horseradish peroxidase gave similar results, whereas the mammalian lactoperoxidase produced a similar amount of N3Ade adduct, but about 50% more N7Gua adduct. The same two depurinating adducts were obtained in equal but smaller amounts when 4-OHE2 was activated with tyrosinase or phenobarbital-induced rat liver microsomes. In all cases, the level of stable adducts was 0.02% or less compared to the depurinating adducts (Li K. M., et al., Proc. Am. Assoc. Cancer Res., 39, 636 (1998); Cavalieri, et al., unpublished results).

[2] = test system: mouse skin DNA; experiment: DNA adducts formed in mouse skin by PAH; format: in vivo
[3] = test system: Harvey (H)-ras oncogene; experiment: H-ras mutations in mouse skin papillomas initiated by PAH; format: in vivo; conditions: codon 61, skin papillomas
[4] = test system: H-ras gene; experiment: H-ras mutation spectra in treated mouse skin (PCR, cloning, sequencing, with or without TDG treatment); format: in vivo; conditions: for A/T to G/C mutations, percent of total mutations / A/T to G/C mutations/total mutations: skin DNA
Description: Evidence in support of this was obtained from a comparative study of mutations in the mouse skin H-ras gene induced by 200 nmol of DB[a,l]P or 200 nmol of anti-DB[a,l]P-11,12-dihydrodiol-13,14-epoxide (anti-DB[a,l]PDE). Unlike DB[a,l]P, anti-DB[a,l]PDE forms 97% stable adducts and 3% depurinating adducts in DNA. In these experiments, the types of mutations that are induced in the early preneoplastic times was identified (12 h to 9 days after treatment) and then analyzed whether these mutations were induced as a result of error-prone repair (FIG. 4). The mutations were identified by PCR amplifying a segment of the H-ras gene from DNA extracted from mouse skin treated with one of the carcinogens, cloning the PCR products in a plasmid, isolating individual subclones and sequencing the H-ras inserts to identify mutations. (Chakravarti D., et al., Mutation Res., 456, 17-32 (2000); Cavalieri E. L. and Rogan E. G., Mechanisms of tumor initiation by polycyclic aromatic hydrocarbons in mammals. In: The Handbook of Environmental Chemistry: PAHs and Related Compounds, 3J, 81-117, Neilson A. H. (ed.), Springer, Heidelberg, Germany (1998).)
In this technique, G.T heteroduplexes in skin DNA are converted to G.apyrimidinic sites by treatment with T.G-DNA glycosylase (TDG) (FIG. 5). (Chakravarti D., et al., Mutation Res., 456, 17-32 (2000).)
Since abasic site-containing DNA molecules are refractory to PCR amplification, the conversion of G.T heteroduplexes into G. apyrimidinic sites makes H-ras molecules containing these heteroduplexes unamplifiable. […] As a result, PCR amplification of the H-ras gene from TDG-treated skin DNA, followed by cloning the PCR product and isolating and determining the sequence of individual subclones, causes a specific, drastic reduction of A to G mutations in the mutation spectra. In addition, the preferential PCR amplification artificially enriches low-abundance mutations that are observed only in TDG-treated spectra.
Following the entry of skin cells into S-phase, however, the G.T heteroduplexes are converted into G.C and A.T base pairs by one round of replication. […] Thus, the specific reduction of A to G mutations in the mutation spectra by the TDG-PCR procedure characterizes these mutations as G.T heteroduplexes. […] Therefore, A to G mutations remained as G.T heteroduplexes until one day after DB[a,l]P treatment of the skin; beyond which they were present as G.C and A.T mutations, presumably by replication. Flow cytometric analysis of epidermal keratinocytes isolated from DB[a,l]P-treated mouse skin confirms that cells begin to enter the S-phase one day after the treatment. (Chakravarti D., et al., Mutation Res., 456, 17-32 (2000); Chakravarti et al., unpublished results).
Treatment of mouse skin with 200 nmol of E2-3,4-Q induced primarily A/T to G/C mutations in the H-ras gene (FIG. 7). For example, 6 h after E2-3,4-Q treatment, 7 mutations were identified among 29 H-ras inserts. Five of the seven were A/T to G/C mutations. At 12 h, four out of the six mutations found in 30 H-ras inserts were A/T to G/C mutations. […] The observation that E2-3,4-Q induces mutations at 6 h is, therefore, a basis to propose that these mutations are induced by error-prone repair. To confirm this, TDG-PCR analysis of these mutations was conducted (FIG. 7). […] At 12 h, the change was from 4 in 30 H-ras inserts to 0 in 41 plasmids. […] The TDG-treated 1 day spectrum was dominated by two clonal mutations of equal frequency (codon 16 AAG to AGG and intronic C to T mutations). Because it is unlikely that the intronic mutation would affect Ras activity and the two clonal mutations were found in the same frequency, these mutations may be allelic, belonging to a clonally proliferating population. […] (Chakravarti D., et al., Oncogene, 20, 7945-7953 (2001).)

[5] = test system: H-ras gene codon 61 (CAA to CTA); experiment: PCR-RFLP detection of H-ras codon 61 mutations in treated mouse skin; format: in vivo
From the text: In this technique, a segment of the H-ras gene is PCR-amplified and the product is restricted with XbaI to examine the induction of a RFLP from the codon 61 mutation. It was observed that at one day, 0.1% of the H-ras genes in the treated area of skin contained the codon 61 mutation, and then the population of these mutations increased to a maximum of 5% between 3 and 4 days after DB[a,l]P treatment. Subsequently, the level of mutations was reduced to background levels (0.0001%). The early time of induction of the codon 61 mutations (one day after DB[a,l]P treatment) coincides with suppression of DNA synthesis and induction of excision repair. Therefore, perhaps DB[a,l]P-induced DNA damage is converted into mutations by error-prone excision repair in pre-S-phase cells. (Chakravarti D., et al., Oncogene, 16, 3203-3210 (1998); Slaga T. J., et al., Cancer Res., 34a, 771-777 (1974); Sawyer T. W., et al., Carcinogenesis, 9, 1197-1202 (1988); Gill R. D., et al., Environ. Mol. Mutagen., 18, 200-206 (1991).)

[6] = test system: cloned H-ras gene (pWT); experiment: Mutations after PCR of pWT plasmid treated in vitro, with or without TDG; conditions: pWT DNA
From the text: FIGS. 4A-D depict H-ras mutations induced by DB[a,l]P or its metabolite, anti-DB[a/l]PDE. Wild type sequences and nucleotide numbers (GenBank accession No. U89950) are indicated below and mutations are indicated above the line. (A) PCR artifact mutations induced in untreated skin DNA and in a cloned H-ras gene (pWT) treated with anti-DB[a,l]PDE or with acid. Under the treatment conditions, anti-DB[a,l]PDE induces 1 adduct per 1000 bases and acid induces 1 depurination per 170 bases (Chakravarti, D. Et al., Mutat. Res., 456, 17-32 (2000)). (B) H-ras mutations in mouse skin DNA after treatment with 200 nmol DB[a,l]P in 100 μL acetone. At 12 h-1 d, the spectra contained mostly A/T to G/C mutations. At days 2 and 3, multiple codon 61 mutations were observed. At 4 d, no clear pattern of mutations could be determined. At days 5 and 6, multiple codon 52 (CTA to CCA) mutations were observed. […] (C) H-ras mutations in mouse skin DNA after treatment with 200 nmol of anti-DB[a,l]PDE in 100 μL acetone. Fifty to sixty percent of mutations between days 1 to 4 were A/T to G/C mutations. (D) H-ras mutations after TDG treatment of DNA from anti-DB[a,l]PDE-treated pWT and from DB[a,l]P- or anti-DB[a,l]PDE-treated mouse skin. […] These mutations were also observed at days 2 and 3. In addition, at days 2 and 3, multiple codon 13 (GGC to GTC) mutations were observed.
On the other hand, anti-DB[a,l]PDE formed approximately 50% A/T to G/C mutations, which correlated with 48.5% formation of anti-DB[a,l]PDE-Ade stable adducts in mouse skin DNA (Table 2). […] Studies conducted in other laboratories also indicate that nucleotide excision repair of bulky stable adducts is error-free. When the pWT plasmid was treated with anti-DB[a,l]PDE in vitro (97% bulky stable adducts) and subjected to PCR amplification, A/T to G/C mutations was also found to constitute 50% of all mutations (5 out of 10) (FIG. 4A). These mutations are induced by translesional synthesis over bulky stable adducts by the PCR polymerases. If, as has been proposed by others, only a small population of PAH-induced bulky stable adducts is removed by pre-replication repair, a large fraction of anti-DB[a,l]PDE-induced adducts would persist in the mouse skin DNA. It is, therefore, possible that the mutations found in anti-DB[a,l]PDE-treated mouse skin DNA are adduct-induced PCR artifacts. The similarity of the frequencies of A/T to G/C mutations in vitro and in skin is consistent with this idea.

`C[C@]12CC[C@@H]3c4ccc(O)c(O)c4CC[C@H]3[C@@H]1CC[C@@H]2O` [4-OHE2, 4-hydroxyestradiol] was tested, and the “level of stable adducts compared to the depurinating adducts” value [1] was at most 0.02%.

In the case of `c1ccc2c(c1)cc1ccc3cccc4c5ccccc5c2c1c34` [DB[a,l]P, dibenzo[a,l]pyrene], the “depurinations through depurinating adducts versus spontaneous base loss” value ([2]; spontaneous: 10,000-20,000 depurinations/cell/day) is reported as “approximately 120 fold”, the “H-ras Mutations, No. of mutations/No. of mice, CAA→CTA” value [3] is reported as 10/12 CAA→CTA and the “A/T to G/C mutations, percent of total mutations” value (“A/T to G/C mutations, percent” below) ([4]; day 1, +TDG) is reported as 20%. For the same compound, the “A/T to G/C mutations/total mutations” value ([4]; day 1, +TDG) was 2/10, the “A/T to G/C mutations, percent” value ([4]; day 1, −TDG) was 90% and the “A/T to G/C mutations/total mutations” value ([4]; day 1, −TDG) was 10/11. The “A/T to G/C mutations, percent” value ([4]; day 2, +TDG) was 27%, the “A/T to G/C mutations/total mutations” value ([4]; day 2, +TDG) was 6/22 and the “A/T to G/C mutations, percent” value ([4]; day 2, −TDG) was 31%. For the same compound, the “A/T to G/C mutations/total mutations” value ([4]; day 2, −TDG) was 11/35, the “A/T to G/C mutations, percent” value ([4]; day 3, +TDG) was 32% and the “A/T to G/C mutations/total mutations” value ([4]; day 3, +TDG) was 8/25. For the same compound, the “A/T to G/C mutations, percent” value ([4]; day 3, −TDG) was 31%, the “A/T to G/C mutations/total mutations” value ([4]; day 3, −TDG) was 7/22 and the “H-ras genes in treated skin containing the codon 61 mutation” value ([5]; 200 nmol, at one day) was 0.1%. For the same compound, the “H-ras genes containing the codon 61 mutation, maximum” value ([5]; 200 nmol, between 3 and 4 days after treatment) was 5% and the “level of codon 61 mutations, subsequently reduced to background levels” value ([5]; after days 3-4) was 0.0001%.

For `Cc1c2ccccc2c(C)c2c1ccc1ccccc12` [DMBA, 7,12-dimethylbenz[a]anthracene], the “H-ras Mutations, No. of mutations/No. of mice, CAA→CTA” value [3] was 4/4 CAA→CTA.

With `OC1c2cc3ccc4cccc5c6ccccc6c(c2C2OC2C1O)c3c45` (stereo not drawn) [anti-DB[a,l]PDE, anti-dibenzo[a,l]pyrene-11,12-dihydrodiol-13,14-epoxide] the “depurinating adducts formed, share of adducts” value ([2]; DNA) was 3%, the “stable adducts formed, share of adducts” value ([2]; DNA) was 97% and the “Ade stable adducts formed” value ([2]; mouse skin DNA) was 48.5%. The “A/T to G/C mutations formed, share of mutations” value ([4]; mouse skin) was “approximately 50%”, the “A/T to G/C mutations, percent” value ([4]; day 1, +TDG) was 80% and the “A/T to G/C mutations/total mutations” value ([4]; day 1, +TDG) was 4/5. For the same compound, the “A/T to G/C mutations, percent” value ([4]; day 1, −TDG) was 62.5%, the “A/T to G/C mutations/total mutations” value ([4]; day 1, −TDG) was 5/8 and the “A/T to G/C mutations, percent” value ([6]; +TDG) was 60%. For the same compound, the “A/T to G/C mutations/total mutations” value ([6]; +TDG) was 3/5, the “A/T to G/C mutations, percent” value ([6]; −TDG) was 50% and the “A/T to G/C mutations/total mutations” value ([6]; −TDG) was 5/10.
